# Measurements as given in patent publication US20090156501A1, “IDENTIFICATION OF LIGANDS BY SELECTIVE AMPLIFICATION OF CELLS TRANSFECTED WITH RECEPTORS” (ACADIA PHARMACEUTICALS, INC., priority 1999, published 2009).
# Where two headings read alike, the source gives them in different places.
# Experiments:
# Format in all cases: cell-based
# [1] = target: T1, FP prostanoid receptor (Homo sapiens, UniProt P43088); assay: Single Receptor Format amplification assay, prostanoid FP; settings: 7-9 doses in duplicate; read-out: Ligand EC50 nM, FP
# T1 construct: expressed in transfected cells; host or cells: NIH 3T3
# T1 sequence (P43088 whole entry): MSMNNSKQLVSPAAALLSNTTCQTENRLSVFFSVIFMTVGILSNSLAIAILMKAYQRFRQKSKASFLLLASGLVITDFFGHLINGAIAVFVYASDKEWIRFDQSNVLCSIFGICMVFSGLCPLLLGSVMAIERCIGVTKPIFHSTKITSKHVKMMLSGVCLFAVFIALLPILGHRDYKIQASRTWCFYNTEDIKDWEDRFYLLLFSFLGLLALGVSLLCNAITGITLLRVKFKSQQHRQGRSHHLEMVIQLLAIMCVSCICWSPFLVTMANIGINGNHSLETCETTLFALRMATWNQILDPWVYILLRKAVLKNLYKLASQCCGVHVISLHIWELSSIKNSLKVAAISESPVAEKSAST
# Source text: (§1) Receptors belonging to several functional categories have successfully been assayed using the general protocol for the Single Receptor Format described above. […] A diversity of signal transduction classes are also illustrated: G-protein coupled receptors, tyrosine kinase linked receptors, G-proteins and oncogenes. In a few of these cases, focus assays have been used to assay ligand interaction with the illustrated receptors.
# [2] = target: T2, EP3 prostanoid receptor (Homo sapiens, UniProt P43115); assay: Single Receptor Format amplification assay, prostanoid EP3; settings: 7-9 doses in duplicate; read-out: Ligand EC50 nM, EP3
# T2 construct: expressed in transfected cells; host or cells: NIH 3T3
# T2 sequence (P43115 1-390): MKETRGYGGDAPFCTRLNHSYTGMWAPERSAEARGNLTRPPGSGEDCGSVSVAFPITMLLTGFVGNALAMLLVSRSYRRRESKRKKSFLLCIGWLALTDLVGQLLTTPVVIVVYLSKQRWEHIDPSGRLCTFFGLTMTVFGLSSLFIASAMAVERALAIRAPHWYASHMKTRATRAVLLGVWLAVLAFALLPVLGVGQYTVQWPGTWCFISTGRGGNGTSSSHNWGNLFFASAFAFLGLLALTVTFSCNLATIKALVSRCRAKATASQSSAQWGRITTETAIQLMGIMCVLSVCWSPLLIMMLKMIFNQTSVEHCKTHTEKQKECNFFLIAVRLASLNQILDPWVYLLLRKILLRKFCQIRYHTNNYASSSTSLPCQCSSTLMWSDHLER
# Source text: as §1
# [3] = target: T3, m1 muscarinic receptor (Homo sapiens, UniProt P11229); assay: Single Receptor Format amplification assay, β-galactosidase marker, NIH 3T3 cells transfected with m1
# T3 construct: expressed in transfected cells; host or cells: NIH 3T3
# T3 sequence (P11229 1-460): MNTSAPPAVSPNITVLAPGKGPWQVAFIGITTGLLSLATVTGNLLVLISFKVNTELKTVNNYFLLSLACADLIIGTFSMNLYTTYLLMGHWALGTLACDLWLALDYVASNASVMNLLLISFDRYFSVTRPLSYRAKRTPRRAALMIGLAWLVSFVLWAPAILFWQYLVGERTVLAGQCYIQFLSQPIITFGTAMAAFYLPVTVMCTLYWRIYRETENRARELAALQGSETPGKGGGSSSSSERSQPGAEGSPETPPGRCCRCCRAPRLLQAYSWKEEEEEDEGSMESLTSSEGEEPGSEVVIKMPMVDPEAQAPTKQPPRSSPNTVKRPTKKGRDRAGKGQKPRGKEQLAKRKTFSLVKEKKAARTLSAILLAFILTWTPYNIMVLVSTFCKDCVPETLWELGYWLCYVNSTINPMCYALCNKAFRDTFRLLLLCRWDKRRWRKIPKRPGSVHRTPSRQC
# [4] = target: T4, m2 muscarinic receptor (Homo sapiens, UniProt P08172); assay: Single Receptor Format amplification assay, β-galactosidase marker, NIH 3T3 cells transfected with m2 and Gq-i5
# T4 construct: expressed in transfected cells; host or cells: NIH 3T3
# T4 sequence (P08172 1-466): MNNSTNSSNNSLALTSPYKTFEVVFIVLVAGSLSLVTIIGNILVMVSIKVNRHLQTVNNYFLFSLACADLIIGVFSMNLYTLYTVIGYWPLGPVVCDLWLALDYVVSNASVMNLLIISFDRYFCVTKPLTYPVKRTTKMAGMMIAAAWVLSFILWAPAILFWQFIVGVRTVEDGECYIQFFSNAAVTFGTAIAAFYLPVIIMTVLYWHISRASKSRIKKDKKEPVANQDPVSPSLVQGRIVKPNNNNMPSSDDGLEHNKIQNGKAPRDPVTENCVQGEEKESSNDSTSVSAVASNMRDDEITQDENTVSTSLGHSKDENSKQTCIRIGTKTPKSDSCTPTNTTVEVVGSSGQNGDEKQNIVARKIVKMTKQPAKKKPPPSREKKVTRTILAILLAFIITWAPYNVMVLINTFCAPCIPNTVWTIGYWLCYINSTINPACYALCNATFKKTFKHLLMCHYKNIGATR
# [5] = target: T5, m3 muscarinic receptor (Homo sapiens, UniProt P20309); assay: Single Receptor Format amplification assay, β-galactosidase marker, NIH 3T3 cells transfected with m3; settings: for EC50: β-gal amplification, mean ±SE of 2-4 experiments, read-out: Muscarinic Agonists EC50 [μM], m3
# T5 construct: expressed in transfected cells; host or cells: NIH 3T3
# T5 sequence (P20309 whole entry): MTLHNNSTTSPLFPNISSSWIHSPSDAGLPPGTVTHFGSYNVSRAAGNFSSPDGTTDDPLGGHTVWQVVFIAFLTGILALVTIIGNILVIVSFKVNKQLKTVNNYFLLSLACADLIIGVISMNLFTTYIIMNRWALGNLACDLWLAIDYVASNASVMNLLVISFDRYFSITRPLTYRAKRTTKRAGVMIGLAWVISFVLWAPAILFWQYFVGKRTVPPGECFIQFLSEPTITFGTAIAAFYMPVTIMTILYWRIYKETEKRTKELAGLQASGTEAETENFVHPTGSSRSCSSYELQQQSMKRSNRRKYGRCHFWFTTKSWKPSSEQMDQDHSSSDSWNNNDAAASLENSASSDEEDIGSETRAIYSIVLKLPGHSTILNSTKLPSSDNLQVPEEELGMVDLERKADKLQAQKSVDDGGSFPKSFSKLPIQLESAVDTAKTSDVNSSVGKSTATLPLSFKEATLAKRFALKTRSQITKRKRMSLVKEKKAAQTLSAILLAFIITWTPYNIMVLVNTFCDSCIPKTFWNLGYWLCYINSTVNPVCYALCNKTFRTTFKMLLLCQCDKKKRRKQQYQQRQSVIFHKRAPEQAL
# [6] = target: T6, m4 muscarinic receptor (Homo sapiens, UniProt P08173); assay: Single Receptor Format amplification assay, β-galactosidase marker, NIH 3T3 cells transfected with m4 and chimeric G-protein; settings: for EC50: cotransfected with Gqi5, mean ±SE of 2-4 experiments, read-out: Muscarinic Agonists EC50 [μM], m4
# T6 construct: expressed in transfected cells; host or cells: NIH 3T3
# T6 sequence (P08173 1-479): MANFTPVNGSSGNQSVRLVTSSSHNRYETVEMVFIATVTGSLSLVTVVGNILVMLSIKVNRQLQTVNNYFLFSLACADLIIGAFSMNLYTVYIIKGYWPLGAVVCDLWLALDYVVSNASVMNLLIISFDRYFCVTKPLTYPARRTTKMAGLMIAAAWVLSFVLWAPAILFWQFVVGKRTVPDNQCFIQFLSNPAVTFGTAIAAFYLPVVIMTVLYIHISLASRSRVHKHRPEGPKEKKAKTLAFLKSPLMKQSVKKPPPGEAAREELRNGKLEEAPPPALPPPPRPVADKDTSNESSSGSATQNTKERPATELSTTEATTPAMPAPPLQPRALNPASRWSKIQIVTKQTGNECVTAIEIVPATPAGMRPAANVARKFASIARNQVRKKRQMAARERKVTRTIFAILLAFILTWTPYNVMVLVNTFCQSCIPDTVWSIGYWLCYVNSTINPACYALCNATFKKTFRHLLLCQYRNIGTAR
# [7] = target: T7, m5 muscarinic receptor (Homo sapiens, UniProt P08912); assay: Single Receptor Format amplification assay, β-galactosidase marker, NIH 3T3 cells transfected with m5; settings: for Muscarinic Agonists (% Max), m5: maximum response as % of carbachol response (carbachol 5 μM)
# T7 construct: expressed in transfected cells; host or cells: NIH 3T3
# T7 sequence (P08912 1-532): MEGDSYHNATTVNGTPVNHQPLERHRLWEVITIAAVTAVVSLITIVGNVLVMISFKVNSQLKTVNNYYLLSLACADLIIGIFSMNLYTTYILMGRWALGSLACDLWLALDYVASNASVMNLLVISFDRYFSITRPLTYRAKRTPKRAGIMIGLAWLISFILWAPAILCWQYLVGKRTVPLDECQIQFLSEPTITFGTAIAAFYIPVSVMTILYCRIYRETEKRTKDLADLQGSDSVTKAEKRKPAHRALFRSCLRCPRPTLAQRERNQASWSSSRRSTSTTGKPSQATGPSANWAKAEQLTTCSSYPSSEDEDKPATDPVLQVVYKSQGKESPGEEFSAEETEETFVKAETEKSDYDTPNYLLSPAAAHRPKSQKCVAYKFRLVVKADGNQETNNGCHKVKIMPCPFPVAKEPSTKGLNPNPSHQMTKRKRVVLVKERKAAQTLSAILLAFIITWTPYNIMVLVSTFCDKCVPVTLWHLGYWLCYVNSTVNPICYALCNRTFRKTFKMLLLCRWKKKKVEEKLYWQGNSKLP
# [8] = target: T8, trk C receptor (Homo sapiens, UniProt Q16288); assay: Single Receptor Format amplification assay, trk C
# T8 construct: expressed in transfected cells; host or cells: NIH 3T3
# Source text: Also illustrated is the dose-response relationships of the related neutrotrophic factor NT3.
# as §1
# [9] = target: T9, trk A receptor (Homo sapiens, UniProt P04629); assay: Single Receptor Format amplification assay, trk A; settings: 7-9 doses in duplicate
# T9 construct: expressed in transfected cells; host or cells: NIH 3T3
# T9 sequence (P04629 33-790 isoform P04629-2 limits assumed): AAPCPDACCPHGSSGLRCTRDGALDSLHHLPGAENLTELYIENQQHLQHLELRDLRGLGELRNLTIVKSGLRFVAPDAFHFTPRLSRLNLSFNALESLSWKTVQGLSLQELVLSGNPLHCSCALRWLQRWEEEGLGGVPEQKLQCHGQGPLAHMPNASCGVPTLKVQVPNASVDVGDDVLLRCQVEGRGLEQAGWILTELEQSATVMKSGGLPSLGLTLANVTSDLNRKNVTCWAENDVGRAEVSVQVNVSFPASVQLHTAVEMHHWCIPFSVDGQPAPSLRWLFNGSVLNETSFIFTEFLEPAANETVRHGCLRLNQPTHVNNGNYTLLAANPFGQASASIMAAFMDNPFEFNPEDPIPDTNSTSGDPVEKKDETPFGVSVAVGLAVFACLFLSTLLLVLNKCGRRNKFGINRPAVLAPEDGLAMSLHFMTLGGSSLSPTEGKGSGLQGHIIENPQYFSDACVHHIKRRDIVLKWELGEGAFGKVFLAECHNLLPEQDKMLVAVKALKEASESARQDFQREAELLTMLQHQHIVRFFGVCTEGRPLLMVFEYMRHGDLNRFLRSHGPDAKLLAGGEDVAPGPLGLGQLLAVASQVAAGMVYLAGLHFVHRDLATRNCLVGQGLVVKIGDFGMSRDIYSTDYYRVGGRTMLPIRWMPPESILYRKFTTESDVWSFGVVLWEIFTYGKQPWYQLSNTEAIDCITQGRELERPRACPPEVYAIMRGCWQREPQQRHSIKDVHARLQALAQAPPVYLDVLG
# [10] = maximum response as % of carbachol response (carbachol 10 μM), Gqi5
molecule,measurement,setting,value
O=C(O)CCC/C=C\C[C@@H]1[C@@H](/C=C/[C@@H](O)COc2cccc(C(F)(F)F)c2)[C@H](O)C[C@@H]1O (racemic) [Fluprostenol],EC50,[1],2 ± 1 nM
O=C(O)CCCCCC[C@H]1C(=O)CC[C@@H]1/C=C/[C@@H](O)COc1ccccc1 [MB28767],EC50,[2],270 ± 190 nM
C[N+](C)(C)CC#CCOC(=O)Nc1cccc(Cl)c1.[Cl-] [McN A-434],"Muscarinic Agonists (% Max), m1",[3]; maximum response as % of carbachol response (carbachol 200 μM),(43 ± 2) %
same,EC50,"[3]; β-gal amplification, mean ±SE of 2-4 experiments, read-out: Muscarinic Agonists EC50 [μM], m1",1.1 ± 0.2 µM
same,EC50,"[4]; cotransfected with Gqi5, mean ±SE of 2-4 experiments, read-out: Muscarinic Agonists EC50 [μM], m2",1.5 ± 0.6 µM
same,"Muscarinic Agonists (% Max), m2",[4]; [10],(108 ± 7) %
same,"Muscarinic Agonists (% Max), m3",[5]; maximum response as % of carbachol response (carbachol 100 μM),(38 ± 2) %
same,EC50,[5],2.2 µM
same,EC50,[6],0.12 ± 0.02 µM
same,"Muscarinic Agonists (% Max), m4",[6]; [10],(84 ± 3) %
same,"Muscarinic Agonists (% Max), m5",[7],(57 ± 4) %
same,EC50,"[7]; β-gal amplification, mean ±SE of 2-4 experiments, read-out: Muscarinic Agonists EC50 [μM], m5",1 ± 0.3 µM
C[N+](C)(C)CCOC(N)=O [carbachol],"Muscarinic Agonists (% Max), m2",[4]; [10],(100) %
same,"Muscarinic Agonists (% Max), m4",[6]; [10],(100) %
same,"Muscarinic Agonists (% Max), m5",[7],(100) %
C[C@@H]1O[C@H](C[N+](C)(C)C)C[C@H]1O [muscarine],"Muscarinic Agonists (% Max), m1",[3],(84 ± 4) %
same,"Muscarinic Agonists (% Max), m2",[4],(76 ± 1) %
same,"Muscarinic Agonists (% Max), m3",[5],(84 ± 6) %
same,EC50,[5],0.56 ± 0.25 µM
same,"Muscarinic Agonists (% Max), m4",[6],(69 ± 2) %
same,EC50,[6],0.32 ± 0.15 µM
same,EC50,[7],0.39 ± 0.18 µM
same,"Muscarinic Agonists (% Max), m5",[7],(86 ± 0) %
O=C1CCCN1CC#CCN1CCCC1 [oxotremorine],"Muscarinic Agonists (% Max), m1",[3],(75 ± 10) %
same,"Muscarinic Agonists (% Max), m2",[4],(100 ± 5) %
same,"Muscarinic Agonists (% Max), m3",[5],(66 ± 5) %
same,"Muscarinic Agonists (% Max), m4",[6],(102 ± 3) %
same,"Muscarinic Agonists (% Max), m5",[7],(74 ± 2) %
NGF: Nerve growth factor (NGF) is an agonist for the trk A receptor,amplification response in cells transfected with trk C,[8]; data not shown,not able to induce amplification responses
NT3: related neutrotrophic factor NT3,"Ligand EC50, trk A",[9],>1 µg/mL
same,"Ligand EC50, trk C",[8]; 7-9 doses in duplicate,0.0024 ± 0.0011 µg/mL
